# What was measured:
# [1] = test system: C. tropicalis; parameters: key: I = intermediate activity; S = susceptibility; R = Resistance; conditions: C. tropicalis clinical strain; cited from earlier work
# [2] = test system: C. Krusei; parameters: key: I = intermediate activity; S = susceptibility; R = Resistance; conditions: C. Krusei clinical strain; cited from earlier work
# [3] = test system: A. niger; parameters: key: I = intermediate activity; S = susceptibility; R = Resistance; conditions: A. niger clinical strain; cited from earlier work
# [4] = test system: C. guillermondii; parameters: key: I = intermediate activity; S = susceptibility; R = Resistance; conditions: C. guillermondii clinical strain; cited from earlier work
# [5] = test system: C. glabrata; parameters: key: I = intermediate activity; S = susceptibility; R = Resistance; conditions: C. glabrata clinical strain; cited from earlier work
# [6] = test system: C. albicans; parameters: key: I = intermediate activity; S = susceptibility; R = Resistance; conditions: C. albicans clinical strain; cited from earlier work
# [7] = test system: C. parapsilosis; parameters: key: I = intermediate activity; S = susceptibility; R = Resistance; conditions: C. parapsilosis clinical strain; cited from earlier work
# [8] = test system: A. terreus; parameters: key: I = intermediate activity; S = susceptibility; R = Resistance; conditions: A. terreus clinical strain; cited from earlier work
# [9] = test system: C. lusitaniae; parameters: key: I = intermediate activity; S = susceptibility; R = Resistance; conditions: C. lusitaniae clinical strain; cited from earlier work
# [10] = test system: A. fumigatus; parameters: key: I = intermediate activity; S = susceptibility; R = Resistance; conditions: A. fumigatus clinical strain; cited from earlier work
# [11] = test system: S. cerevisiae; parameters: key: I = intermediate activity; S = susceptibility; R = Resistance; conditions: S. cerevisiae clinical strain; cited from earlier work
# [12] = test system: A. flavus; parameters: key: I = intermediate activity; S = susceptibility; R = Resistance; conditions: A. flavus clinical strain; cited from earlier work
# [13] = test system: A. niger; experiment: Antifungal disk diffusion susceptibility test (CLSI M44); format: cell-based; conditions: Aspergillus niger, A. niger
# Procedure: (§1) Filamentous fungi and yeasts strains, from clinical origin, were supplied by Microbiology Service from The Princess Hospital, Madrid. They are detailed in Table IX.
# (§2) Filamentous fungi and yeast cells suspensions in distilled water was prepared from a culture of 24-48 h, depending on species, in Sabouraud agar. Each suspension was adjusted to a fixed size inoculum of 1-5×10^8 CFU/ml with a spectrophotometer (Ferraro, MJ National Committee for Clinical Laboratory Standards. 2000).
# (§3) Antifungal susceptibility tests were developed following the standardized methodology detailed in document CLSI: M44-4: Method for Antifungal Disk diffusion susceptibility testing of yeasts consisting of disk diffusion on agar Muller-Hinton (supplemented with 2% glucose).
# [14] = test system: C. guillermondii; experiment: as above; format: cell-based; conditions: C. guillermondii
# Procedure: as §1, §2, §3
# [15] = test system: S. cerevisiae; experiment: as above; format: cell-based; conditions: Saccharomyces cerevisiae, S. cerevisiae
# Procedure: as §1, §2, §3
# [16] = test system: C. lusitaniae; experiment: as above; format: cell-based; conditions: Clavispora lusitaniae, C. lusitaniae
# Procedure: as §1, §2, §3
# [17] = test system: A. flavus; experiment: as above; format: cell-based; conditions: Aspergillus flavus, A. flavus
# Procedure: as §1, §2, §3
# [18] = test system: C. albicans; experiment: as above; format: cell-based; conditions: Candida albicans, C. albicans
# Procedure: as §1, §2, §3
# [19] = test system: C. parapsilosis; experiment: as above; format: cell-based; conditions: Lodderomyces parapsilosis, C. parapsilosis
# Procedure: as §1, §2, §3
# [20] = test system: C. tropicalis; experiment: as above; format: cell-based; conditions: Candida tropicalis, C. tropicalis
# Procedure: as §1, §2, §3
# [21] = test system: A. fumigatus; experiment: as above; format: cell-based; conditions: Aspergillus fumigatus, A. fumigatus
# Procedure: as §1, §2, §3
# [22] = test system: A. terreus; experiment: as above; format: cell-based; conditions: Aspergillus terreus, A. terreus
# Procedure: as §1, §2, §3
# [23] = test system: K. pneumoniae; experiment: Kirby-Bauer disk diffusion susceptibility test; format: cell-based; conditions: 300 μg/disc
# Procedure: (§4) Bacterial strains, from clinical origin, were supplied by the National Center for Microbiology, Institute of Health Carlos III (Majadahonda, Madrid). They are detailed in Table 1.
# (§5) Bacterial cells suspension in sterile saline was prepared from a culture of 24-72 h, depending on bacterial species, in Mueller-Hinton Agar with 5% sheep blood. Each suspension was adjusted to a fixed size inoculum of 1-5×10^8 CFU/ml with a spectrophotometer (Ferraro, MJ National Committee for Clinical Laboratory Standards. 2000).
# (§6) Kirby-Bauer disk diffusion susceptibility test protocol was utilized to determine the sensitivity or resistance of pathogenic bacteria against the compounds and others antibiotics. The absence of growth around the disks is an indirect measure of the ability of this compound to inhibit an organism (Kirby, W., et al., Antibiotics Annu. 1956-1957:892). After 18 to 72 hours of incubation at 37° C., with or without CO2, under aerobic or anaerobic conditions, depending on the bacterial species, halo of growth inhibition were obtained and evaluated.
# (§7) Interpretation of susceptibility and resistance was based on the presence or absence of a zone of inhibition surrounding the disk. Kirby-Bauer disk diffusion susceptibility test is a common method which uses antibiotic-impregnated wafers to test whether bacteria are affected by antibiotics. The size of the zone of inhibition depends on how effective the antibiotic is at stopping the growth of the bacterium. A stronger antibiotic will create a larger zone, because a lower concentration of the antibiotic is enough to stop growth.
# (§8) All compounds were tested at 300 μg/disc.
# [24] = test system: N. carnea; experiment: Kirby-Bauer disk diffusion susceptibility test; format: cell-based; conditions: 300 μg/disc
# Procedure: as §4, §5, §6, §7, §8
# [25] = test system: N. cyriacigeorgica; experiment: Kirby-Bauer disk diffusion susceptibility test; format: cell-based; conditions: 300 μg/disc
# Procedure: as §4, §5, §6, §7, §8
# [26] = test system: A. baumannii; experiment: Kirby-Bauer disk diffusion susceptibility test; format: cell-based; conditions: 300 μg/disc
# Procedure: as §4, §5, §6, §7, §8
# [27] = test system: T. pulmonis; experiment: Kirby-Bauer disk diffusion susceptibility test; format: cell-based; conditions: 300 μg/disc
# Procedure: as §4, §5, §6, §7, §8
structure (smiles),measurement,setting,value
OC(Cn1cncn1)(Cn1cncn1)c1ccc(F)cc1F [Fluconazole],Susceptibility of the strain,[1],S
same,Susceptibility of the strain,[2],S
same,Susceptibility of the strain,[3],R
same,Susceptibility of the strain,[4],R
same,Susceptibility of the strain,[5],S
same,Susceptibility of the strain,[6],S
same,Susceptibility of the strain,[7],S
same,Susceptibility of the strain,[8],R
same,Susceptibility of the strain,[9],S
same,Susceptibility of the strain,[10],R
same,Susceptibility of the strain,[11],S
same,Susceptibility of the strain,[12],R
C[C@@H]1[C@H](O)[C@@H](C)/C=C/C=C/C=C/C=C/C=C/C=C/C=C/[C@H](O[C@@H]2O[C@H](C)[C@@H](O)[C@H](N)[C@@H]2O)C[C@@H]2O[C@](O)(C[C@@H](O)C[C@@H](O)[C@H](O)CC[C@@H](O)C[C@@H](O)CC(=O)O[C@H]1C)C[C@H](O)[C@H]2C(=O)O [Amphotericin B],Susceptibility of the strain,[1],S
same,Susceptibility of the strain,[2],I
same,Susceptibility of the strain,[3],S
same,Susceptibility of the strain,[4],R
same,Susceptibility of the strain,[5],S
same,Susceptibility of the strain,[6],I
same,Susceptibility of the strain,[7],S
same,Susceptibility of the strain,[8],I
same,Susceptibility of the strain,[9],I
same,Susceptibility of the strain,[10],S
same,Susceptibility of the strain,[11],I
same,Susceptibility of the strain,[12],I
NNC(=O)C(=O)NNc1ccc(Br)cc1 [MSG-216],zone of inhibition at 150 µg/disc,[13]; 150 μg/disc,10 mm
same,zone of inhibition at 500 µg/disc,[13]; 500 μg/disc,36 mm
same,zone of inhibition at 150 µg/disc,[14]; 150 μg/disc,13 mm
same,zone of inhibition at 500 µg/disc,[14]; 500 μg/disc,> 40 mm
same,zone of inhibition at 150 µg/disc,[15]; 150 μg/disc,19 mm
same,zone of inhibition at 500 µg/disc,[15]; 500 μg/disc,35 mm
same,zone of inhibition at 150 µg/disc,[16]; 150 μg/disc,36 mm
same,zone of inhibition at 500 µg/disc,[16]; 500 μg/disc,> 40 mm
same,zone of inhibition at 150 µg/disc,[17]; 150 μg/disc,< 10 mm
same,zone of inhibition at 500 µg/disc,[17]; 500 μg/disc,< 10 mm
same,zone of inhibition at 150 µg/disc,[18]; 150 μg/disc,24 mm
same,zone of inhibition at 500 µg/disc,[18]; 500 μg/disc,> 40 mm
same,zone of inhibition at 150 µg/disc,[19]; 150 μg/disc,11 mm
same,zone of inhibition at 500 µg/disc,[19]; 500 μg/disc,> 40 mm
same,zone of inhibition at 150 µg/disc,[20]; 150 μg/disc,26 mm
same,zone of inhibition at 500 µg/disc,[20]; 500 μg/disc,> 40 mm
same,zone of inhibition at 150 µg/disc,[21]; 150 μg/disc,< 10 mm
same,zone of inhibition at 500 µg/disc,[21]; 500 μg/disc,10 mm
same,zone of inhibition at 150 µg/disc,[22]; 150 μg/disc,< 10 mm
same,zone of inhibition at 500 µg/disc,[22]; 500 μg/disc,10 mm
same,Activity detected (mm),[23],11 mm
same,Activity detected (mm),[24],14 mm
same,Activity detected (mm),[25],17 mm
same,Activity detected (mm),[26],12 mm
same,Activity detected (mm),[27],25 mm

# Source: patent US11584710B2, “Compounds for treating infections” (HORITZONTS TECNOLOGICS HUNGARY KORLÁTOLT FELELOSSÉGU …, priority 2017, dated 2023)
